Data set [1] concerns NO production by LPS stimulated in RAW264.7 cells. Briefly: Inhibition of NO production in LPS-stimulated RAW264.7 macrophages (Griess reagent). It is filed as cell-based, mouse. The following applies: LPS-stimulated RAW264.7 cells; for IC50: Mus musculus, read-out: IC50 (inhibition of nitric oxide production). Here is the method:
(§1) RAW264.7 the mouse macrophages cell line (Bioresource Collection and Research Center (BCRC) Number: 60001) was obtained from Food Industry Research and Development Institute (Hsinchu, Taiwan). All of the cell lines were cultured in DMEM containing 10% (v:v) fetal bovine serum (FBS), penicillin and streptomycin (100 U/mL), 4 mM L-glutamine (100 U/mL). The cells were cultured in a humidified incubator under 5% CO2 at 37 °C. The RAW264.7 cells (5 × 10^5 cells per mL) were seeded into plates for 24 h before treatment.
(§2) The in-vitro cell viability activity of MeOH extracts, partition fractions and pure compounds were determined by the MTT assay. RAW264.7 cells (5 × 10^4/well) were seeded in 96-well plates and incubated for 24 h. The cells were treated with MeOH extracts and contain partition fractions in various concentrations (0, 62.5, 125, 250, 500 and 1000 μg/mL), compounds and positive control (0, 6.25, 12.5, 25, 50 and 100 μg/mL) in the presence or absence of LPS (100 ng/mL) for 24 h. After 24 h, the medium was replaced with a medium containing 0.5 mg/mL MTT solution and incubated at 37 °C for 4 h. After the end of the MTT reaction, we used 0.04 N HCl /isopropanol solution to dissolve the formazan crystals. The absorbance was measured at 570 nm using a microplate reader (Molecular Devices, LLC.). The cell viability was calculated and compared with the control group.
The supernatant collected from cell culture and mixed with an equal volume of Griess reagent (1% sulphanilamide, 0.1% naphthylethylenediamine dihydrochloride and 5% phosphoric acid) and the absorbance value was measured at 540 nm using an ELISA plate reader.
The IC50 values for NO production were presented as mean values ± SD (standard deviations) of at least three independent experiments. The statistical significance of the differences was evaluated using Student’s t-test using IBM SPSS v.20.0 (SPSS Inc., Chicago, IL, USA). The percentage of NO production and cell viability were compared using variance analysis with GraphPad Prism 7.0 (GraphPad Software Inc., San Diego, CA, USA).
(In general: Griess reagent forms a coloured azo dye with nitrite.)

Data set [2] can be described thus: Cell viability assay (MTT) in RAW264.7 cells. It is filed as cell-based. The following applies: mouse, RAW264.7 macrophage cells, 6.25-100 μg/mL, LPS 100 ng/mL, mean ± SD of three independent experiments. Here is the method: as §1, §2
[3] abbreviates: pure compounds, 6.25-100 μg/mL, 24 h, mean ± SD of three independent experiments.

This note sets out measurements from paper PMC6930649, “Four New Iridoid Metabolites Have Been Isolated from the Stems of Neonauclea reticulata (Havil.) Merr. with Anti-Inflammatory Activities on LPS-Induced RAW264.7 Cells” (Molecules, 2019).

In brackets after ≈: the same amount, converted by molar mass.

Regarding `COc1ccc(O)c(O)c1` [Compound 13, 4-methoxycatechol], in data set [1] (setting [3]), the IC50 is more than 100 µg/mL. Further, the CC50 at 24 h in data set [2] was more than 100 µg/mL.
For `COC(=O)C1=COC(O)C2C1CC(OC1OC(=O)C3C(C)C(O)CC3C1C(=O)OC)C2C` (stereo not drawn) [Compound 3, reticunin A], in data set [1] (setting [3]), the IC50 was more than 100 µg/mL. In data set [2], this compound showed a CC50 at 24 h of more than 100 µg/mL.
Turning to `O=C(O)/C=C/c1ccc(O)c(O)c1` [Compound 15, trans-caffeic acid], the IC50 in data set [1] (setting [3]) turned out to be 95.2 ± 1.2 µg/mL (≈ 528 µM). The same compound had a CC50 at 24 h in data set [2] of more than 100 µg/mL.
`O=C(O)c1ccc(O)c(O)c1` [Compound 14, protocatechuic acid]: the IC50 in data set [1] (setting [3]) worked out at 72.9 ± 4.97 µg/mL (≈ 473 µM). The compound also yielded a CC50 at 24 h in data set [2] of more than 100 µg/mL.
For the compound `COc1cc([C@@H]2OC[C@@H]3[C@H]2CO[C@H]3c2cc(OC)c(O)c(OC)c2)ccc1O` [Compound 12, (+)-medioresinol], the IC50 in data set [1] (setting [3]) was 76.2 ± 2.42 µg/mL (≈ 196 µM). The compound also returned a CC50 at 24 h in data set [2] of more than 100 µg/mL.
In the same order, the values of `COc1cc(C(=O)C(O)CO)ccc1O` (stereo not drawn) [Compound 20, C-veratroylglycol] are more than 100 µg/mL and more than 100 µg/mL.
As for `COc1cc(/C=C/C(=O)O)ccc1O` [Compound 18, ferulic acid], the IC50 in data set [1] (setting [3]) was more than 100 µg/mL. The same compound yielded a CC50 at 24 h in data set [2] of more than 100 µg/mL.
As to `COC(=O)C1COC(=O)C2C(C)C(OC3OC(=O)C4C(C)C(O)CC4C3C(=O)OC)CC12` (stereo not drawn) [Compound 4, reticunin B], the IC50 in data set [1] (setting [3]) is more than 100 µg/mL. In data set [2], the CC50 at 24 h is more than 100 µg/mL.
For the compound `COC(=O)C1=COC[C@@H]2[C@@H](C)[C@@H](O)C[C@H]12` [Compound 6, siphonostegiol], in data set [1] (setting [3]), the IC50 was more than 100 µg/mL. Moreover, in data set [2], the CC50 at 24 h was more than 100 µg/mL.
On to `COc1ccc2c(c1)c(CC(=O)O)c(C)n2C(=O)c1ccc(Cl)cc1` [Indomethacin, indomethacin, reference compound], for which the IC50 in data set [1] (setting [3]) came out at 46.7 ± 3.14 µg/mL (≈ 131 µM). In data set [2], this compound yielded a CC50 at 24 h of more than 100 µg/mL.
In the same order, the values of `COC(=O)C1=CNC(=O)[C@@H]2[C@@H](C)[C@@H](O)C[C@H]12` [Compound 5, strychnovoline] are more than 100 µg/mL and more than 100 µg/mL.
The matching figures for `C/C=C1/C(=O)OCC[C@H]1CCO` [Compound 8, floribundane B]: more than 100 µg/mL and more than 100 µg/mL.
For the compound `COc1cc(C(=O)CCO)cc(OC)c1O` [Compound 17, 3-hydroxy-1-(4-hydroxy 3,5-dimethoxyphenyl)-1-propanone], the IC50 in data set [1] (setting [3]) was more than 100 µg/mL. For the same compound, the 50% cytotoxic concentration (CC50) at 24 h in data set [2] is more than 100 µg/mL.
On to `COc1cc([C@H]2OC[C@H]3[C@@H]2CO[C@@H]3c2cc(OC)c(O)c(OC)c2)cc(OC)c1O` [Compound 10, syringaresinol], for which the IC50 in data set [1] (setting [3]) came out at 9.18 ± 1.9 µg/mL (≈ 21.9 µM). Further, the “IC50 fold less than indomethacin (positive control)” value in data set [1] (NO inhibition) is 5 fold. Besides, in data set [2], the CC50 at 24 h is more than 100 µg/mL.
As to `C[C@@H]1[C@H]2COC(=O)[C@@H](CO)[C@H]2C[C@@H]1O` [Compound 9, alyxialactone], the IC50 in data set [1] (setting [3]) was more than 100 µg/mL. In data set [2], the CC50 at 24 h is more than 100 µg/mL.
Turning to `COC(=O)C1C(O)OC(=O)C2C(C)C(O)CC12` (stereo not drawn) [Compound 1, neonanin C], the IC50 in data set [1] (setting [3]) is more than 100 µg/mL. The CC50 at 24 h in data set [2] is more than 100 µg/mL.
For `C[C@@H]1[C@H]2COC(=O)C[C@H]2C[C@@H]1O` [Compound 7, isoboonein], the IC50 in data set [1] (setting [3]) amounted to 86.3 ± 3.45 µg/mL (≈ 507 µM). This compound had a CC50 at 24 h in data set [2] of more than 100 µg/mL.
For the compound `COC(=O)c1ccc(O)c(O)c1` [Compound 19, protocatechuic acid methyl ester], the IC50 in data set [1] (setting [3]) is more than 100 µg/mL. In addition, the CC50 at 24 h in data set [2] was more than 100 µg/mL.
For the compound `COc1cc(C(=O)O)cc(OC)c1O` [Compound 16, syringic acid], the IC50 in data set [1] (setting [3]) was more than 100 µg/mL. For the same compound, the CC50 at 24 h in data set [2] was more than 100 µg/mL.
In the case of (+)-pinoresinol [Compound 11], the “IC50 (inhibition of nitric oxide production)” value in data set [1] (setting [3]) was more than 100 µg/mL.
For the compound `COC(=O)C(CO)C1CC(O)C(C)C1COC(=O)c1ccccc1` (stereo not drawn) [Compound 2, neonanin D], the IC50 in data set [1] (setting [3]) was more than 100 µg/mL. In data set [2], this compound yielded a CC50 at 24 h of more than 100 µg/mL.

As usually defined, the IC50 is the concentration needed to halve the response being measured. For orientation: CC50 means the concentration at which the toxic effect on the cells reaches its halfway point. Low readings indicate greater toxicity to the cells, high ones lower toxicity to the cells.
